We go through 54 molecules from patent publication US20070014721A1, “Hydrazide conjugates as imaging agents” (priority 2005, published 2007).

Data set [1] deals with aorta of apolipoprotein E (apoE) knockout mouse. The data set is described as follows: In vivo ApoE mouse aorta uptake study. Particulars: 60 min postinjection; for Aorta (% ID/g): ApoE mouse on high-fat diet 37-41 weeks, tail vein bolus; for Aorta/Blood Ratio: ApoE mouse, calculated from the % ID/g data.
Experimental: Mice were fed a high-fat diet to accelerate plaque formation and compounds were tested in the mice between 37-41 weeks on diet. Test compounds were radiolabeled (^14C, ^99mTc, or ^111In as described above) and administered at 0.02-4.0 mCi/kg to anesthetized mice in a single, bolus injection via the tail vein. Blood samples were collected via the tail between 0-30 minutes postinjection for pharmacokinetic analysis and mice were euthanized by CO2 at 60 minutes for tissue harvesting. The aorta were flushed with saline through the left ventricle exiting via the femoral vein. The aorta were then removed from the heart to the renal bifurcation and additional tissue samples collected (blood, muscle, liver, kidney, heart, lung, spleen and innominate artery). All samples were weighed and assayed for radioactivity. Tissue uptake is expressed as percent of injected dose per gram of tissue (% ID/g). The aorta to blood ratios were calculated from the % ID/g data.
Data set [2] has as its system Rabbit plaque aorta or normal rabbit aorta. Description: Ex vivo blood vessel binding assay. Set-up: species or system New Zealand white rabbits. Conditions: radiolabeled compound incubated with rabbit aorta (0.5 cm) in phosphate buffered saline for 2 hours at 37° C; bound compound as percentage of the incubated compound. An excerpt: Normal aorta was obtained from New Zealand white rabbits. Aorta bearing atherosclerotic plaque was obtained from New Zealand white rabbits balloon stripped along the abdominal aorta and placed on a high fat diet (0.5% cholesterol) for 16-22 weeks. Vascular injury was produced with a 3-F Fogarty catheter along the abdominal aorta and left iliofemoral artery. This procedure generates an accelerated complex lesion development with a lipid rich core covered by a fibrous cap in rabbits. Rabbit plaque aorta or normal rabbit aorta (0.5 cm) was incubated with 10 nCi of ^14C labeled compound or 1.5 μCi of ^99m Tc labeled compound or 0.135 μCi of ^111In labeled compound or 0.135 μCi of ^68Ga labeled compound or 0.135 µCi of ^153Gd labeled compound diluted in phosphate buffered saline (450 μL) for 2 hours at 37° C. The supernatant from this sample was collected and analyzed by HPLC to determine compound stability in presence of blood vessels. The blood vessel tissue was then washed with phosphate buffered saline (3×10 mL). Phosphate buffered saline (10 ml) was added to the tissue and incubated at 37° C. for 1 hour. The tissue was then washed with phosphate buffered saline (3×10 mL). The washed tissue was oxidized in a tissue oxidizer for C-14 labeled compounds. The counts in the oxidized tissue were determined on a beta counter. Blood vessels incubated with ^99m Tc labeled compound or ^111In labeled compound or ^68Ga labeled compound or ^153Gd labeled compound were counted on a gamma counter. The amount of compound bound to the tissue was determined as a percentage of the incubated compound. This was calculated using the following formula: [formula]

Regarding H-d-Phe-Apph-Ahx-DTPA [Example 182], in data set [1], the “Aorta (% ID/g)” value was found to be 11.0 % ID/g and the “Aorta/Blood Ratio” value is 4.5. In addition, in data set [2], the “Tissue Binding %” value stood at 12.02%.
The matching figures for H-d-Hphe-Pheh-AEEA-DTPA [Example 213]: 8.4 % ID/g, 9.8 and 26.68%.
H-d-Pro-Ahxh-DTPA [Example 165]: the “Tissue Binding %” value in data set [2] was determined as 5.51%.
On to H-d-Val-Ambh-DTPA [Example 198], for which the “Tissue Binding %” value in data set [2] is recorded as 5.26%.
On the same count and under the same terms, for H-d-Cys(Bzl)-Ambh-DTPA [Example 179] the value was 9.67%.
On the same count and under the same terms, for H-d-Phe-Inph-DTPA [Example 199] the value was 3.36%.
Consider H-d-Hphe-Apph-DTPA [Example 180], for which, in data set [1], the “Aorta (% ID/g)” value turned out to be 8.3 % ID/g and the “Aorta/Blood Ratio” value is on record as 13.2. In addition, the “Tissue Binding %” value in data set [2] was 18.24%.
Take “Boc-Leu-PABA-CO-d-Leu-Ahxh-H [Example 127]”: in data set [2], the “Tissue Binding %” value came out at 24.22%.
For H-d-Tyr(Et)-Apah-DTPA [Example 169], in data set [1], the “Aorta (% ID/g)” value is 6.1 % ID/g and the “Aorta/Blood Ratio” value was 5.1. In data set [2], the “Tissue Binding %” value worked out at 13.53%.
The like results for H-d-Cha-Apah-DTPA [Example 170] were, in that order, 7.0 % ID/g, 5.4 and 7.55%.
The like results for H-d-Aphe-Ahxh-DTPA [Example 193] were, in that order, 6.2 % ID/g, 3.0 and 8.69%.
Boc-d-Leu-N(Me)-NH-Ahx-H [Example 141]: the “Tissue Binding %” value in data set [2] stood at 0.75%.
As to Boc-L-d-Leu-Ahxh-H [Example 150], in data set [1], the “Aorta (% ID/g)” value is 2.1 % ID/g and the “Aorta/Blood Ratio” value is 1.2. In data set [2], the “Tissue Binding %” value worked out at 5.36%.
For H-d-Cha-Inph-DTPA [Example 197], in data set [2], the “Tissue Binding %” value is on record as 6.97%.
Boc-d-Phe-Ahxh-H [Example 129]: in data set [1], the “Aorta (% ID/g)” value was 8.1 % ID/g and the “Aorta/Blood Ratio” value is reported as 3.3. Besides, the “Tissue Binding %” value in data set [2] was 14.42%.
The like results for H-d-Nle-Ahxh-DTPA [Example 200] were, in that order, 5.1 % ID/g, 2.2 and 2.72%.
The matching figures for “[H-d-Cys(Bzl)-Apph]2EDTA[APEEPA-DTPA]2 [Example 186]”: 7.0 % ID/g, 1.5 and 7.78%.
Regarding H-cLeu-Ambh-DTPA [Example 195], in data set [1], the “Aorta (% ID/g)” value amounted to 4.6 % ID/g and the “Aorta/Blood Ratio” value was 1.9. In addition, in data set [2], the “Tissue Binding %” value was determined as 9.52%.
The like results for H-Pro-Ahxh-DTPA [Example 163] were, in that order, 6.5 % ID/g, 0.9 and 2.61%.
Consider “Boc-d-Lys(e-Leu(Boc))-Ahxh-H [Example 136]”, for which the “Tissue Binding %” value in data set [2] was determined as 9.15%.
Boc-d-Leu-NHNH2 [Example 122]: in data set [1], the “Aorta (% ID/g)” value is given as 4.0 % ID/g and the “Aorta/Blood Ratio” value is recorded as 3.0. In data set [2], the “Tissue Binding %” value is 13.99%.
For H-d-Phe-Ambh-DTPA [Example 161], in data set [1], the “Aorta (% ID/g)” value is recorded as 8.7 % ID/g and the “Aorta/Blood Ratio” value is on record as 4.9. The “Tissue Binding %” value in data set [2] is 7.75%.
For the molecule “Boc-d-Leu-NHNH—CO-(PEG)4-NH2 [Example 123]”, the “Tissue Binding %” value in data set [2] is reported as 9.74%.
On to H-d-Tyr(Bzl)-Ambh-DTPA [Example 206], for which, in data set [1], the “Aorta (% ID/g)” value stood at 5.8 % ID/g and the “Aorta/Blood Ratio” value is 3.2. Also, the “Tissue Binding %” value in data set [2] is reported as 19.62%.
Boc-d-Arg(Pmc)-Ahxh-H [Example 131]: in data set [2], the “Tissue Binding %” value amounted to 5.19%.
Consider H-d-Cys(Bzl)-Apah-DTPA [Example 173], for which, in data set [1], the “Aorta (% ID/g)” value is reported as 9.5 % ID/g and the “Aorta/Blood Ratio” value is 5.8. Besides, the “Tissue Binding %” value in data set [2] amounted to 13.82%.
Regarding H-d-Leu-XInph-DTPA [Example 201], in data set [1], the “Aorta (% ID/g)” value is listed as 4.3 % ID/g and the “Aorta/Blood Ratio” value is listed as 2.1. The “Tissue Binding %” value in data set [2] is listed as 2.94%.
With H-d-Leu-Apah-DOTA [Example 160], the “Tissue Binding %” value in data set [2] is 9.59%.
As for H-d-Leu-NHNH-DTPA [Example 189], in data set [1], the “Aorta (% ID/g)” value is reported as 3.3 % ID/g and the “Aorta/Blood Ratio” value was 1.0. Moreover, the “Tissue Binding %” value in data set [2] is 1.08%.
The like results for H-d-His-Ahxh-DTPA [Example 172] were, in that order, 3.7 % ID/g, 1.2 and 4.22%.
The matching figures for H-d-Hphe-Ahxh-DTPA [Example 168]: 7.5 % ID/g, 5.8 and 9.17%.
As for H-d-Tic-Apah-DTPA [Example 178], in data set [1], the “Aorta (% ID/g)” value came to 8.3 % ID/g and the “Aorta/Blood Ratio” value is given as 4.2. In addition, the “Tissue Binding %” value in data set [2] was determined as 6.00%.
As to N,N-Me2-d-Leu-Ahxh-H [Example 125], the “Tissue Binding %” value in data set [2] is on record as 4.63%.
On to Boc-d-Leu-Apah-H [Example 121], for which, in data set [1], the “Aorta (% ID/g)” value is 9.3 % ID/g and the “Aorta/Blood Ratio” value is recorded as 4.6. In data set [2], the “Tissue Binding %” value came to 30.55%.
The like results for H-d-Cha-Ahxh-DTPA [Example 194] were, in that order, 6.8 % ID/g, 3.3 and 16.33%.
The like results for H-d-Hphe-Ambh-Ahx-DTPA [Example 211] were, in that order, 9.9 % ID/g, 3.9 and 18.09%.
Turning to H-d-Phe-Bbh-DTPA [Example 209], in data set [1], the “Aorta (% ID/g)” value was determined as 10.8 % ID/g and the “Aorta/Blood Ratio” value is given as 9.6. In data set [2], the “Tissue Binding %” value was 20.9%.
The matching figures for H-d-Phe(4-NHBz)-Ambh-DTPA [Example 205]: 7.8 % ID/g, 6.3 and 8.83%.
H-d-Bip-Ahxh-DTPA [Example 175]: in data set [1], the “Aorta (% ID/g)” value came to 7.9 % ID/g and the “Aorta/Blood Ratio” value is recorded as 5.9. Further, in data set [2], the “Tissue Binding %” value is 32.09%.
Regarding H-d-Hphe-mAmbh-DTPA [Example 210], in data set [1], the “Aorta (% ID/g)” value is 10.5 % ID/g and the “Aorta/Blood Ratio” value is reported as 11.2. Also, the “Tissue Binding %” value in data set [2] is given as 13.13%.
For the molecule H-d-Phe(F5)-Ambh-DTPA [Example 204], in data set [1], the “Aorta (% ID/g)” value amounted to 6.7 % ID/g and the “Aorta/Blood Ratio” value was 5.3. For the same molecule, the “Tissue Binding %” value in data set [2] turned out to be 16.11%.
Take “Boc-d-Aphe(ε-Leu(Boc))-Ahxh-H [Example 151]”: in data set [1], the “Aorta (% ID/g)” value was 9.0 % ID/g and the “Aorta/Blood Ratio” value is listed as 2.9. For the same molecule, the “Tissue Binding %” value in data set [2] is reported as 26.92%.
The matching figures for `CC(C)C[C@@H](NC(=O)OC(C)(C)C)C(=O)NCC(=O)NCCCCN` [Example 140, Boc-d-Leu-Gly-NH-Butyl-NH2]: 1.3 % ID/g, 0.8 and 0.52%.
The matching figures for Boc-cLeu-Ahxh-H [Example 133]: 5.7 % ID/g, 2.9 and 9.10%.
The matching figures for H-d-Phe-XInph-DTPA [Example 202]: 4.3 % ID/g, 4.0 and 5.44%.
With Boc-d-Ala-Ahxh-H [Example 134], the “Tissue Binding %” value in data set [2] is listed as 5.72%.
As to H-d-Ser(Bzl)-Ahxh-DTPA [Example 166], in data set [1], the “Aorta (% ID/g)” value amounted to 4.0 % ID/g and the “Aorta/Blood Ratio” value is given as 3.3. Further, in data set [2], the “Tissue Binding %” value is listed as 5.91%.
Boc-Aib-Ahxh-H [Example 130]: the “Tissue Binding %” value in data set [2] is on record as 3.33%.
Consider `CC(C)CC(NC(=O)OC(C)(C)C)C(=O)NNC(=O)NN` (stereo not drawn) [Example 124, Boc-d-Leu-NHNH—CO—NHNH2], for which, in data set [2], the “Tissue Binding %” value amounted to 5.85%.
For the molecule H-d-Stya-Ambh-DTPA [Example 187], in data set [1], the “Aorta (% ID/g)” value stood at 6.1 % ID/g and the “Aorta/Blood Ratio” value is 5.4. The “Tissue Binding %” value in data set [2] came to 13.66%.
Take H-Ahxh-d-Leu-Boc [Example 137]: the “Tissue Binding %” value in data set [2] turned out to be 1.43%.
Take H-d-Phe-NHNH-DTPA [Example 192]: in data set [1], the “Aorta (% ID/g)” value is 2.3 % ID/g and the “Aorta/Blood Ratio” value was 1.9. In data set [2], the “Tissue Binding %” value is given as 1.78%.
For the molecule Boc-βLeu-Ahxh-H [Example 135], in data set [2], the “Tissue Binding %” value was 2.30%.
Same read-out and setting: as for Boc-d-Glu(tBu)-Ahxh-H [Example 132], the figure is 2.47%.
